SMILES strings stand for the structures.

The target in the assay is T1, GST-JAK2(808-1132) (Homo sapiens, UniProt O60674).
T1 construct: GST-JAK2(808-1132) is purchased from Invitrogen; purchased Invitrogen (Carlsbad, USA) #4288
Briefly: EPK JAK/TYK-kinase family profiling assay (Caliper mobility shift), JAK2. The assay is classed as biochemical. Conditions: Caliper mobility shift assay of Example 187, 20 μM ATP, read-out: IC50 with Test in present Example. The method, boiled down:
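Caliper mobility-shift assay with the GST-tagged kinase domain and a fluorescently labeled peptide substrate plus ATP, run 60 min at 30° C and then stopped with EDTA buffer. Turnover was taken as the substrate/product ratio. Compounds were tested at eight final concentrations from 10 to 0.003 μM.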

T1 sequence (O60674 808-1132): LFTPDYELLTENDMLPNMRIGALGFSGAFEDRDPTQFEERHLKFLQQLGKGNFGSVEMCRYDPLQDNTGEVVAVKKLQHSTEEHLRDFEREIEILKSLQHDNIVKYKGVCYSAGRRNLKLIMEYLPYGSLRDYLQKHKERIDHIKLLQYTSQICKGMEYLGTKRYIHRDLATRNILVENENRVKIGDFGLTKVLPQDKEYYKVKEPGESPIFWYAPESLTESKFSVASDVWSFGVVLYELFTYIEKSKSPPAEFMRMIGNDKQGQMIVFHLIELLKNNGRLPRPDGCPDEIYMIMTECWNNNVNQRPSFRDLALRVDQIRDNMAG

On to `Cc1cc(Nc2nc3cccc(-c4ccc(CC(=O)N5CCS(=O)(=O)CC5)c(F)c4)c3o2)ccc1C(=O)N(C)C` [Example 83, 4-(7-{4-[2-(1,1-Dioxo-1lambda*6*-thiomorpholin-4-yl)-2-oxo-ethyl]-3-fluoro-phenyl}-benzooxazol-2-ylamino)-2,N,N-trimethyl-benzamide], for which the IC50 is less than 3 nM.

Regarding `Cc1cc(Nc2nc3cccc(-c4ccc(C(=O)N5CCOCC5)c(C)c4)c3o2)ccc1C(=O)N(C)C` [Example 85, 2,N,N-Trimethyl-4-{7-[3-methyl-4-(morpholine-4-carbonyl)-phenyl]-benzooxazol-2-ylamino}-benzamide], the IC50 is 9.3 nM.

For `COCCNC(=O)c1ccc(Nc2nc3cccc(-c4ccc(C(=O)N5CCOCC5)cc4)c3o2)cc1` [Example 145, N-(2-Methoxy-ethyl)-4-{7-[4-(morpholine-4-carbonyl)-phenyl]-benzooxazol-2-ylamino}-benzamide], the half-maximal inhibitory concentration (IC50) was determined as 55 nM.

Consider `Cc1cc(Nc2nc3cccc(-c4cc(F)c(CN5CCOCC5)c(F)c4)c3o2)ccc1C(=O)N(C)CCN(C)C` [Example 158, 4-[7-(3,5-Difluoro-4-morpholin-4-ylmethyl-phenyl)-benzooxazol-2-ylamino]-N-(2-dimethylamino-ethyl)-2,N-dimethyl-benzamide], for which the concentration for half-maximal inhibition (IC50) stood at 21 nM.

For the compound `CCN(CC)C(=O)c1ccc(Nc2nc3cccc(-c4cc(F)c(CN5CCN(C(C)=O)CC5)c(F)c4)c3o2)cc1C` [Example 117, 4-{7-[4-(4-Acetyl-piperazin-1-ylmethyl)-3,5-difluoro-phenyl]-benzooxazol-2-ylamino}-N,N-diethyl-2-methyl-benzamide], the half-inhibitory concentration (IC50) amounted to 29.5 nM.

Turning to `Cc1cc(Nc2nc3cccc(-c4cc(F)c(CN5CCOCC5)c(F)c4)c3o2)ccc1N1CCOCC1` [Example 163, [7-(3,5-Difluoro-4-morpholin-4-ylmethyl-phenyl)-benzooxazol-2-yl]-(3-methyl-4-morpholin-4-yl-phenyl)-amine], the IC50 was 11.6 nM.

As for `CN1CCN(c2ccc(Nc3nc4cccc(-c5ccc(CC(=O)N6CCOCC6)cc5)c4o3)cc2)CC1` [Example 74, 2-(4-{2-[4-(4-Methyl-piperazin-1-yl)-phenylamino]-benzooxazol-7-yl}-phenyl)-1-morpholin-4-yl-ethanone], the IC50 turned out to be 5 nM.

In the case of `Cc1cc(Nc2nc3cccc(-c4ccc(C(C)(C)C(=O)N5CCOCC5)cc4)c3o2)ccc1CN1CCOCC1` [Example 167, 2-Methyl-2-{4-[2-(3-methyl-4-morpholin-4-ylmethyl-phenylamino)-benzooxazol-7-yl]-phenyl}-1-morpholin-4-yl-propan-1-one], the IC50 came out at 14 nM.

With `CN1CCN(c2ccc(Nc3nc4cccc(-c5cc(F)c(CN6CCS(=O)(=O)CC6)c(F)c5)c4o3)cc2)CC1` [Example 95, {7-[4-(1,1-Dioxo-1lambda*6*-thiomorpholin-4-ylmethyl)-3,5-difluoro-phenyl]-benzooxazol-2-yl}-[4-(4-methyl-piperazin-1-yl)-phenyl]-amine], the IC50 amounted to 6.85 nM.

As for `Cc1cc(-c2cccc3nc(Nc4ccc(C(=O)N5CCCC5)c(C)c4)oc23)ccc1CN1CCOCC1` [Example 110, {2-Methyl-4-[7-(3-methyl-4-morpholin-4-ylmethyl-phenyl)-benzooxazol-2-ylamino]-phenyl}-pyrrolidin-1-yl-methanone], the IC50 is 88 nM.

With `CCN1CCN(c2ccc(Nc3nc4ccnc(-c5cc(F)c(CN6CCS(=O)(=O)CC6)c(F)c5)c4o3)cc2C)CC1` [Example 153, {4-[4-(1,1-Dioxo-1lambda*6*-thiomorpholin-4-ylmethyl)-3,5-difluoro-phenyl]-oxazolo[5,4-c]pyridin-2-yl}-[4-(4-ethyl-piperazin-1-yl)-3-methyl-phenyl]-amine], the IC50 came out at 26 nM.

Take `CS(=O)(=O)c1ccc(-c2cccc3nc(Nc4ccc(N5CCN(C6CC6)CC5)cc4)oc23)cc1` [Example 113, [4-(4-Cyclopropyl-piperazin-1-yl)-phenyl]-[7-(4-methanesulfonyl-phenyl)-benzooxazol-2-yl]-amine]: the IC50 amounted to 270 nM.

As for `CCN1CCN(c2ccc(Nc3nc4ccnc(-c5cc(F)c(CN6CCOCC6)c(F)c5)c4o3)cc2C)CC1` [Example 152, [4-(3,5-Difluoro-4-morpholin-4-ylmethyl-phenyl)-oxazolo[5,4-c]pyridin-2-yl]-[4-(4-ethyl-piperazin-1-yl)-3-methyl-phenyl]-amine], the IC50 was determined as 180 nM.

`COCCN1CCN(c2ccc(Nc3nc4cccc(-c5ccc(C(=O)N6CCOCC6)c(C)c5)c4o3)cc2C)CC1` [Example 66, [4-(2-{4-[4-(2-Methoxy-ethyl)-piperazin-1-yl]-3-methyl-phenylamino}-benzooxazol-7-yl)-2-methyl-phenyl]-morpholin-4-yl-methanone]: the IC50 was 6.45 nM.

As for `CS(=O)(=O)Nc1cccc(Nc2nc3cccc(-c4ccc(C(=O)N5CCOCC5)cc4)c3o2)c1` [Example 148, N-(3-{7-[4-(Morpholine-4-carbonyl)-phenyl]-benzooxazol-2-ylamino}-phenyl)-methanesulfonamide], the IC50 was found to be 50 nM.

On to `O=C1CCCN1c1ccc(Nc2nc3cccc(-c4cc(F)c(CN5CCS(=O)(=O)CC5)c(F)c4)c3o2)cc1` [Example 125, 1-(4-{7-[4-(1,1-Dioxo-1lambda*6*-thiomorpholin-4-ylmethyl)-3,5-difluoro-phenyl]-benzooxazol-2-ylamino}-phenyl)-pyrrolidin-2-one], for which the IC50 was determined as 70.5 nM.

With `Cc1cc(Nc2nc3cccc(-c4cc(F)c(CN5CCS(=O)(=O)CC5)c(F)c4)c3o2)ccc1C(=O)N(C)CCN(C)C` [Example 159, N-(2-Dimethylamino-ethyl)-4-{7-[4-(1,1-dioxo-1lambda*6*-thiomorpholin-4-ylmethyl)-3,5-difluoro-phenyl]-benzooxazol-2-ylamino}-2,N-dimethyl-benzamide], the IC50 worked out at 6.2 nM.

Consider `Cc1cc(Nc2nc3cccc(-c4ccc(C(=O)N5CCOCC5)c(C)c4)c3o2)ccc1CN1CCOCC1` [Example 166, {2-Methyl-4-[2-(3-methyl-4-morpholin-4-ylmethyl-phenylamino)-benzooxazol-7-yl]-phenyl}-morpholin-4-yl-methanone], for which the IC50 came out at 11.1 nM.

Turning to `CN1CCN(c2ccc(Nc3nc4cccc(-c5ccc(CN6CCS(=O)(=O)CC6)cc5)c4o3)cc2)CC1` [Example 89, {7-[4-(1,1-Dioxo-1lambda*6*-thiomorpholin-4-ylmethyl)-phenyl]-benzooxazol-2-yl}-[4-(4-methyl-piperazin-1-yl)-phenyl]-amine], the IC50 came to 60 nM.

Take `Cc1cc(-c2cccc3nc(Nc4ccc(N5CCN(C)CC5)cc4)oc23)ccc1C(=O)N1CCOCC1` [Example 82, (2-Methyl-4-{2-[4-(4-methyl-piperazin-1-yl)-phenylamino]-benzooxazol-7-yl}-phenyl)-morpholin-4-yl-methanone]: the IC50 worked out at 4.8 nM.

Consider `Cc1cc(Nc2nc3cccc(-c4cc(F)c(CN5CCS(=O)(=O)CC5)c(F)c4)c3o2)ccc1C(=O)N(C)C` [Example 65, 4-{7-[4-(1,1-Dioxo-thiomorpholin-4-ylmethyl)-3,5-difluoro-phenyl]-benzooxazol-2-ylamino}-2,N,N-trimethyl-benzamide], for which the IC50 is 8.25 nM.

As to `Cc1cc(Nc2nc3cccc(-c4ccc(S(C)(=O)=O)cc4)c3o2)ccc1N1CCN(CCN(C)C)CC1` [Example 100, {4-[4-(2-Dimethylamino-ethyl)-piperazin-1-yl]-3-methyl-phenyl}-[7-(4-methanesulfonyl-phenyl)-benzooxazol-2-yl]-amine], the IC50 was found to be 16.5 nM.

Take `COC(=O)c1ccc(Nc2nc3cccc(-c4ccc(C(=O)N5CCOCC5)cc4)c3o2)cc1OC` [Example 149, 2-Methoxy-4-{7-[4-(morpholine-4-carbonyl)-phenyl]-benzooxazol-2-ylamino}-benzoic acid methyl ester]: the IC50 worked out at 62 nM.

Turning to `CN1CCN(c2ccc(Nc3nc4cccc(-c5ccc(C(=O)N6CCS(=O)(=O)CC6)c(F)c5)c4o3)cc2)CC1` [Example 80, (1,1-Dioxo-1lambda*6*-thiomorpholin-4-yl)-(2-fluoro-4-{2-[4-(4-methyl-piperazin-1-yl)-phenylamino]-benzooxazol-7-yl}-phenyl)-methanone], the IC50 was 6.2 nM.

Turning to `Cc1cc(Nc2nc3cccc(-c4ccc(CC(=O)N5CCOCC5)cc4)c3o2)ccc1C(=O)N(C)C` [Example 70, 2,N,N-Trimethyl-4-{7-[4-(2-morpholin-4-yl-2-oxo-ethyl)-phenyl]-benzooxazol-2-ylamino}-benzamide], the IC50 was determined as 6.2 nM.

Turning to `CCN1CCN(c2ccc(Nc3nc4cccc(-c5ccc(C(=O)N6CCS(=O)(=O)CC6)cc5)c4o3)cc2C)CC1` [Example 116, (1,1-Dioxo-1lambda*6*-thiomorpholin-4-yl)-(4-{2-[4-(4-ethyl-piperazin-1-yl)-3-methyl-phenylamino]-benzooxazol-7-yl}-phenyl)-methanone], the IC50 was 15 nM.

For the compound `Cc1cc(-c2cccc3nc(Nc4ccc(N5CCN(C6CC6)CC5)c(C)c4)oc23)ccc1C(=O)N1CCOCC1` [Example 155, (4-{2-[4-(4-Cyclopropyl-piperazin-1-yl)-3-methyl-phenylamino]-benzooxazol-7-yl}-2-methyl-phenyl)-morpholin-4-yl-methanone], the IC50 came to 13.5 nM.

For `Cc1cc(Nc2nc3cccc(-c4cc(F)c(CN5CCOCC5)c(F)c4)c3o2)ccc1N1CCN(CCC(F)(F)F)CC1` [Example 121], the IC50 was 210 nM.

Consider `COc1ccc(Nc2nc3cccc(-c4cc(F)c(CN5CCS(=O)(=O)CC5)c(F)c4)c3o2)cc1N1CCN(C)CC1` [Example 130, {7-[4-(1,1-Dioxo-1lambda*6*-thiomorpholin-4-ylmethyl)-3,5-difluoro-phenyl]-benzooxazol-2-yl}-[4-methoxy-3-(4-methyl-piperazin-1-yl)-phenyl]-amine], for which the IC50 was found to be 6.55 nM.

The values are drawn from patent US8629168B2, “Benzoxazoles and oxazolopyridines being useful as janus kinases inhibitors” (priority 2006, dated 2014).
